From paper PMC6143625, “A high throughput screen for next-generation leads targeting malaria parasite transmission” (Nature Communications, 2018)
Read-outs that look alike come from different tables or passages of the source.

Assays:
[1] = system: P. falciparum stage V female gametocytes (female gamete formation); assay: P. falciparum dual gamete formation assay (Pf DGFA), female readout (Pfs25 expression), 48 h carry-over format; type: cell-based, Plasmodium falciparum NF54; conditions: Plasmodium falciparum; for inhibition at 2 µM: primary screen, single replicate
[2] = system: P. falciparum female gamete formation; assay: Pf DGFA add-in format, female readout; type: cell-based; conditions: Plasmodium falciparum; 0h preincubation/add-in
Experimental: In profiling mode, the Pf DGFA was performed in 96-well plates[23] in wash-out and add-in formats to aid manual manipulation steps. In the wash-out format, gametocytes were incubated for 24 h with test compounds in round-bottomed 96 well plates and then culture medium replaced three times over 6 h, to remove as much of the compound as possible from the well. […] In add-in format, gametocytes were added directly to flat-bottomed 96-well plates containing test compounds, ookinete medium and anti-Pfs25.

[3] = system: P. berghei strain CTRPpGFP early mosquito stage (ookinete) development; assay: P. berghei ookinete development assay (Pb ODA); type: cell-based, Plasmodium berghei; conditions: for IC50: Plasmodium berghei, 24h incubation
Experimental: All mouse procedures were performed in accordance with the UK Animals (Scientific Procedures) Act (PPL 70/7185) and approved by the Imperial College Animal Welfare and Ethical Review Body (AWERB). The ability of test compounds to inhibit P. berghei early mosquito stage development was tested in the Ookinete Development Assay[37] with a few exceptions. Anaesthetised 6- to 8-week-old female Tucks Ordinary (TO) mice infected with P. berghei strain CTRPpGFP[38] were rapidly exsanguinated by cardiac puncture and 500 µl of blood diluted in 25 ml of ookinete medium supplemented with 20% foetal bovine serum. Immediately the blood/medium mixture was dispensed by multichannel pipette into 384 well plates containing pre-plated test compounds. 10 µM cycloheximide and DMSO were used as the positive and negative controls, respectively. Plates were stored in the dark in a humidified incubator at 18 °C for 24 h. Ookinete production was imaged by fluorescence microscopy of GFP expression under the ookinete-specific CTRP promoter using a Nikon Ti-E widefield microscope and ×10 objective. Ookinete production was quantified using ICY and percentage inhibition calculated as above with reference to positive and negative controls.

[4] = system: P. berghei-ANKA-GFP-Luc-SMCON sporozoites in HepG2-A16-CD81EGFP cells; assay: P. berghei liver stage assay (luciferase sporozoite HepG2 invasion); type: cell-based; conditions: Plasmodium berghei
Experimental: (§1) Compound inhibition of P. berghei sporozoite liver infection was assessed in a high-throughput luciferase assay. 1536-well plates (789173-F, Greiner Bio-One) were pre-seeded with 5 µl HepG2-A16-CD81^EGFP cells grown in DMEM (11965–092, Invitrogen) containing 10% FBS (35–011-CV, Corning) and 1× Pen Strep Glutamine (10378–016, Invitrogen). Then, 50 nl of compound in DMSO was dispensed in 12-point serial dilution dose-response format (50 µM to 2.82 × 10^−4 µM), and incubated overnight.A. stephensi mosquitoes infected with P. berghei-ANKA-GFP-Luc-SMCON (Pb-Luc)[41] sporozoites bearing the antifolate-resistance-conferring Toxoplasma gondii dihydrofolate reductase-thymidylate synthase selectable marker, pyR2. After dissection, ~1000 sporozoites in 5 µl screening media (DMEM, 11965–092, Invitrogen; 5% FBS, 35–011-CV, Corning; 5x Pen Strep Glutamine, 10378–016, Invitrogen) were added per well and incubated for 48 h (37 °C, 5% CO2). Bioluminescence was measured using an EnVision microplate reader (Perkin Elmer), following the addition of 2 µl per well of Bright-Glo™ (Promega). Compound toxicity against HepG2 cells was determined in parallel by measuring cellular ATP levels reported by luciferase activity. Methods were similar to the P. berghei liver stage assay, except for the addition of CellTiter-Glo® (Promega) as a detection reagent. DMSO (0.5%) was used as a negative control in both assays, with Atovaquone (5 µM) and Puromycin (10 µM) acting as positive controls in the P. berghei and toxicity assays, respectively.

[5] = system: HepG2 cells; assay: HepG2 toxicity (CellTiter-Glo, parallel to liver stage assay); type: cell-based, human
Experimental: as §1

[6] = BPCA vs GHCDL stock of DDD599, adjusted for correct molecular weight, read-out: Pf DGFA female IC50
[7] = 24h preincubation/carry-over, read-out: Pf DGFA Female IC50
[8] = 48h incubation, read-out: Pb Liver invasion assay IC50
[9] = 48 h, dose response retest of primary hits, 48 h incubation, read-out: Female IC50
[10] = 48h preincubation/carry-over, read-out: Pf DGFA Female IC50
[11] = SAR, Fig. 7, read-out: Female IC50

| Compound | IC50 [1, 6] [µM] | IC50 [2] [µM] | IC50 [3] [µM] | IC50 [1, 7] [µM] | IC50 ([1]; compound resynthesised at GSK, read-out: IC50 against female gametocytes) [µM] | IC50 [4, 8] [µM] | Human HepG2 assay TOX50 ([5]; human, 48 h) [µM] | IC50 [1, 9] [µM] | IC50 [1, 10] [µM] | IC50 [1, 11] [µM] | inhibition at 2 µM ([1]; 48 h incubation) [%] | activity in P. berghei ookinete development assay ([3]; profiling) | Human HepG2 assay TOX50 ([5]; 48h incubation) [µM] | IC50 ([4]; read-out: Pb liver IC50) [µM] | HepG2 TOX50 ([5]; human, 48 h) [µM] |
| --- | --- | --- | --- | --- | --- | --- | --- | --- | --- | --- | --- | --- | --- | --- | --- |
| O=C(CCl)Nc1ccc(Br)cc1 [BPCA, N-(4-bromophenyl)-2-chloroacetamide] | 11 | – | – | – | – | – | – | – | – | – | – | – | – | – | – |
| CC(=O)c1c(C)nn(CC(=O)Nc2ccc(Br)cc2)c1C [DDD01027599] | 3.43 | > 10 | > 12.5 | > 12.5 | > 50 | 7.48 | 25.00 | – | – | – | – | – | – | – | – |
| O=S(=O)(NCC1(O)CCOc2ccccc21)c1ccccc1F (centres unmarked) [DDD01028073] | – | > 10 | 0.3 | > 12.5 | – | > 50 | >50.0 | > 10 | > 12.5 | > 12.5 | < 30 | – | – | – | – |
| Cc1ccc(S(=O)(=O)NCC2(O)CCOc3ccccc32)s1 (centres unmarked) [DDD01028074] | – | > 10 | 0.29 | > 12.5 | – | > 50 | >50.0 | > 10 | > 12.5 | > 12.5 | < 30 | – | – | – | – |
| O=S(=O)(NCC1(O)CCOc2ccccc21)c1ccc(Cl)s1 (centres unmarked) [DDD01028075] | – | > 10 | 0.34 | > 12.5 | – | > 50 | >50.0 | > 10 | > 12.5 | > 12.5 | < 30 | – | – | – | – |
| O=S(=O)(NCC1(O)CCOc2ccccc21)c1ccccc1Br (centres unmarked) [DDD01028076] | – | > 10 | 0.22 | > 12.5 | – | > 50 | >50.0 | > 10 | > 12.5 | > 12.5 | < 30 | – | – | – | – |
| COc1cccc(-n2ccc3nc(N4CCCC4)ncc3c2=O)c1 [DDD01034957] | – | > 10 | > 12.5 | > 12.5 | – | – | >50.0 | – | > 12.5 | – | – | – | – | – | – |
| O=S(=O)(NCC1(O)CCOc2ccccc21)c1cccs1 (centres unmarked) [DDD01035879] | – | > 10 | 0.29 | > 12.5 | – | > 50 | >50.0 | > 10 | > 12.5 | > 12.5 | < 30 | – | – | – | – |
| O=S(=O)(NCC1(O)CCOc2ccccc21)c1ccc(Br)s1 (centres unmarked) [DDD01035881] | – | > 10 | 0.11 | > 12.5 | – | – | >50.0 | > 10 | > 12.5 | > 12.5 | < 30 | – | – | – | – |
| Cc1cccc(NC(=O)c2cccc(OCc3nnnn3C)c2)n1 [DDD01038630] | – | > 10 | > 12.5 | > 12.5 | – | > 50 | >50.0 | – | > 12.5 | – | – | – | – | – | – |
| CC(c1ccco1)N(C(=O)CNc1ccc(C#N)cc1)C1CC1 (centres unmarked) [DDD01062645] | – | 5.05 | > 12.5 | > 12.5 | – | – | >50.0 | > 10 | > 12.5 | – | < 30 | inactive | – | – | – |
| Cc1ccc(CN(c2cc(C)nc3nc(C(F)(F)F)nn23)C2CC2)cc1 [DDD01063654] | – | > 10 | > 12.5 | > 12.5 | – | 15.3 | >50.0 | – | > 12.5 | – | – | – | – | – | – |
| Cc1cc(C)c(CNCC(O)c2ccc(F)c(F)c2)c(C)c1.Cl (centres unmarked) [DDD01065539] | – | > 10 | > 12.5 | > 12.5 | – | 17.2 | – | – | > 12.5 | – | – | – | 36.6 | – | – |
| CC(NCC1CCN(CCO)CC1)c1ccc(OC(F)(F)F)cc1 (centres unmarked) [DDD01073716] | – | > 10 | > 25 | > 12.5 | – | 15.5 | >50.0 | > 10 | 4.12 | – | < 30 | – | – | – | – |
| CN(Cc1cccc(F)c1)C(=O)CS(=O)(=O)Cc1c(Cl)cccc1Cl [DDD01077188] | – | > 10 | > 12.5 | > 12.5 | – | 23.1 | >50.0 | – | > 12.5 | – | – | – | – | – | – |
| CN1CCC(NCC(O)c2cccc(OCc3ccccc3)c2)CC1 (centres unmarked) [DDD01079164] | – | > 10 | > 25 | > 12.5 | – | 16.5 | 38.40 | > 10 | 3.12 | – | < 30 | – | – | – | – |
| CNc1cc(C)nc(NC2CCCN(C3Cc4ccccc4C3)C2)n1 (centres unmarked) [DDD01243506] | – | > 10 | > 12.5 | > 12.5 | – | – | >50.0 | – | > 12.5 | – | – | – | – | 0.52 | ≥ 50 |
| OC1(CN2CCC(Oc3cccc(C(F)(F)F)c3)CC2)CCNC1 (centres unmarked) [DDD01245291] | – | > 10 | > 25 | > 25 | – | 6.06 | 21.70 | 5.78 | 4.13 | – | < 30 | – | – | – | – |
| CC(c1cccs1)N(C)Cc1cnc(-c2ccccn2)nc1 (centres unmarked) [DDD01246628] | – | > 10 | > 25 | > 25 | – | 13.3 | 11.30 | 5.32 | > 25 | – | 41.9 | – | – | – | – |
